Reference: BindingDB's records for doi:10.1021/jm9604383 (Goethe-University Frankfurt, 2021)
Each block holds one compound with its values, some of them ahead of it.

What was measured:
Adenosine receptor A3 [1] = molecular target: T1, Adenosine receptor A3 (Homo sapiens, UniProt P0DMS8); assay: Binding affinity to human A3 adenosine receptor assessed as inhibition constant
T1 sequence (P0DMS8 whole entry): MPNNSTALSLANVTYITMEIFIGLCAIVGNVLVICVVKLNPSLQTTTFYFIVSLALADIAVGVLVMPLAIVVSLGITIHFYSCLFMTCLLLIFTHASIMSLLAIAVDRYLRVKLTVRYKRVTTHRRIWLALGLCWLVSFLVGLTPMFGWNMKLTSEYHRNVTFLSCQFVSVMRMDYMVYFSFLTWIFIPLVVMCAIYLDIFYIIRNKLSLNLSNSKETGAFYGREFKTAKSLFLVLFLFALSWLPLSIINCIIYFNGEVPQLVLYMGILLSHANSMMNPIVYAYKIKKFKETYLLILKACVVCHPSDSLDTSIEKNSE

Adenosine receptor A1 = molecular target: T2, Adenosine receptor A1 (Homo sapiens, UniProt P30542); assay: Binding affinity to human A1 adenosine receptor assessed as inhibition constant
T2 sequence (P30542 whole entry): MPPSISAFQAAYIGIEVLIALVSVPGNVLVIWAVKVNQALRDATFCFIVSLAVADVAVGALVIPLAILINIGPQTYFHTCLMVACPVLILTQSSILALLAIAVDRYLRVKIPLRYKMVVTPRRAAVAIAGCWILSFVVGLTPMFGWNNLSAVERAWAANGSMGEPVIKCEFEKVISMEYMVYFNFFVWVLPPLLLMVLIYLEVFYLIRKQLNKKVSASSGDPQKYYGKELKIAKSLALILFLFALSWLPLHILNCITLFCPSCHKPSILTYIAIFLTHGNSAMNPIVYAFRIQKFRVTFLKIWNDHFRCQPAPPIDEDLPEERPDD

Adenosine receptor A2b [2] = molecular target: T3, Adenosine receptor A2b (Homo sapiens, UniProt P29275); assay: Inhibition of human A2b adenosine receptor
T3 sequence (P29275 whole entry): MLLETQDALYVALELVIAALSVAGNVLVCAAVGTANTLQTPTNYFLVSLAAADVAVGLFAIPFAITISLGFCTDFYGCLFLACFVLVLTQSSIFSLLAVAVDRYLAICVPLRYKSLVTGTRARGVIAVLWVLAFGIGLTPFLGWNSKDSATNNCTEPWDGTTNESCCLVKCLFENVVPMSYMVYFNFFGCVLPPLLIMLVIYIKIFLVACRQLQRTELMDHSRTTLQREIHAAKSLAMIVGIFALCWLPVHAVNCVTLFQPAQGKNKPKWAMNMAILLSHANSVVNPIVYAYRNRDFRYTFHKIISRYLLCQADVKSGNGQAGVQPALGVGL

[3] = molecular target: T4, Palmitoleoyl-protein carboxylesterase NOTUM (Homo sapiens, UniProt Q6P988); assay: Inhibition of human notum using OTPS as substrate incubated for 16 hrs by fluorescent based assay
T4 sequence (Q6P988 whole entry): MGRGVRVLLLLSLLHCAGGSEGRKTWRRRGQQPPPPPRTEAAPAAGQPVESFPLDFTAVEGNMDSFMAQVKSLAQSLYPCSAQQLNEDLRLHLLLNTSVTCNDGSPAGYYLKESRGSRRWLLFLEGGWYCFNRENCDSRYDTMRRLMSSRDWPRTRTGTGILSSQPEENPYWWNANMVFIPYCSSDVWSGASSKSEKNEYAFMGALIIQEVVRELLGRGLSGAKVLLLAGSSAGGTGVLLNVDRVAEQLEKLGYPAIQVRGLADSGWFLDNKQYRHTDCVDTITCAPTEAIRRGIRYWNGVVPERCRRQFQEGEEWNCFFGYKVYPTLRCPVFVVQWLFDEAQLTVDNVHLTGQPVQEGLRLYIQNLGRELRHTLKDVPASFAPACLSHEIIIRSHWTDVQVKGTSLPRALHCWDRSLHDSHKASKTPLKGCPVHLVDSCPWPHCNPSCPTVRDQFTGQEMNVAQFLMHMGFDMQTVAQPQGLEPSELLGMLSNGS

Adenosine receptor A3 [4] = molecular target: T1, Adenosine receptor A3; assay: Displacement of [1251]AB-MEC from human A3 receptor assessed as inhibition constant
Adenosine receptor A2b [5] = molecular target: T3, Adenosine receptor A2b; assay: Displacement of [3H]DPCPX to human A2B adenosine receptor derived from HEK cells assessed as inhibition constant

- Ki (Adenosine receptor A3 [1]): 0.433 nM
Compound: CC[C@@H]1Cn2c(c3nc(-c4cc(Cl)cc(Cl)c4Cl)nc-3n(C)c2=O)N1

- Ki (Adenosine receptor A1): 0.95 nM
Compound: CCCn1c(=O)c2nc(C3CC4CC3C3OC43)[nH]c2n(CCC)c1=O (stereo not drawn) [8-(3-Oxa-tricyclo[3.2.1.0*2,4*]oct-6-yl)-1,3-dipropyl-3,7-dihydro-purine-2,6-dione]

- IC50 [3]: 19000 nM
Compound: Cn1c(=O)c2c(ncn2C)n(C)c1=O

Continued, compound first:

Compound: Cn1cnc2c1c(=O)[nH]c(=O)n2C [theobromine]
- IC50 (Adenosine receptor A2b [2]): 130000 nM

Compound: CCCn1c(=O)c2nc(-c3ccc(S(=O)(=O)NCCN(C)C)cc3)[nH]c2n(CCC)c1=O
- Ki (Adenosine receptor A1): 6.5 nM

Compound: CCCCn1c(=O)c2c(ncn2[C@@H]2O[C@H](C(=O)NC)[C@@H](O)[C@H]2O)n(CCCC)c1=O [5-(1,3-Dibutyl-2,6-dioxo-1,2,3,6-tetrahydro-purin-7-yl)-3,4-dihydroxy-tetrahydro-furan-2-carboxylic acid methylamide]
- Ki (Adenosine receptor A3 [4]): 229 nM

Compound: CCCn1c(=O)[nH]c2nc(-c3cnn(Cc4noc(-c5ccc(Cl)cc5)n4)c3)[nH]c2c1=O [8-(1-((5-(4-chlorophenyl)-1,2,4-oxadiazol-3-yl)methyl)-1H-pyrazol-4-yl)-1-propyl-1H-purine-2,6(3H,7H)-dione]
- Ki (Adenosine receptor A2b [5]): 5.5 nM

Compound: CCCn1c(=O)c2nc(-c3ccc(OCC(N)=O)cc3O)[nH]c2n(CCC)c1=O
- Ki (Adenosine receptor A1): 6.5 nM
